Data from patent US8541362B2, “Cyclopropyl compounds and compositions for delivering active agents” (Emisphere Technologies, Inc., priority 2005, dated 2013).

Experiments:
Format in all cases: in vivo, rat
Sprague Dawley rats [1] = assay: Oral delivery of insulin in rats with delivery agent: change in blood glucose; conditions: 0.25 mg/kg insulin + 100 mg/kg delivery agent
Procedure: (§1) General anesthesia was induced in Sprague Dawley rats (250-350 gram) with 5% isoflurane in an anesthetic chamber, and the anesthesia was maintained with 2% isoflurane in 98% oxygen carrier gas up to the end of the study.
(§2) Jugular vein cannulation was carried out first for blood sampling by creating an incision just above the right clavicle. Using blunt forceps, the connective and adipose tissue were pushed aside and the jugular vein was exposed. The distal end of the exposed jugular vein was ligated, while its proximal end was strained to occlude the blood flow momentarily. A portion of the vessel near to the distal end was nipped, and the silicon catheter was inserted toward the proximal direction. After the catheter was tightened with a silk suture, the skin wound was closed with surgical staples.
(§3) The jejunum was prepared as follows: the proximal jejunum section was identified first. Plasma insulin and blood glucose levels were determined from a blood sample from the […] and used as a baseline.
(§4) The animal's abdominal cavity was opened. After the jejunum was identified, the part of the proximal segment was nipped with surgical scissors. A dosing tubing connected to a 1 ml syringe was introduced into the incised jejunum and carefully dosed. After dosing, the dosing tubing was removed. Then, a 2-cm polyethylene tubing was inserted into the jejunum so that the cut opening was located in the middle of the tubing. Both ends of the tube were tied with suture with the jejunum tissue to secure the jejunum, and, after the wound dried, a vet bond was applied over the top of the wound with a cotton swab. A 2 cm bridge tubing was placed to maintain the intestinal fluid flow intact.
(§5) After dosing and installation of the bridge, the exposed intestines were gently pushed back into place. The exposed wounds were covered with a wet gauge, and then with a paraffin film to prevent dehydration. Thereafter, blood samplings were performed at scheduled time-points.
(§6) Dose: 0.25 mg/kg Insulin, 100 mg/kg Delivery Agent, Concentration: 0.25 mg/ml, 100 mg/ml. Dose volume: 1 ml/kg.
(§7) Human recombinant insulin (ICN Biomedicals, Aurora, Ohio) was dissolved in deionized water (ph˜6.5) to obtain stock insulin solutions having a concentration of 15 mg/ml. 7-cyclopropylheptanoic acid was dissolved in deionized water to obtain a 200 mg/ml delivery agent solution. The free acid form of the delivery agent was converted to the sodium salt by adding one equivalent of sodium hydroxide. Solutions were vortexed, sonicated, and heated. If necessary, additional sodium hydroxide was added in μl quantities to achieve uniform solubility in the delivery agent solutions. Solutions were adjusted to a pH of 7.5-8.5 by the addition of either hydrochloric acid or sodium hydroxide, as appropriate. The insulin stock solution was then added to the delivery agent solutions to obtain an administration solution ultimately having an insulin concentration of 0.25 mg/ml. After solubilization and drug addition, administration solutions were brought to a final volume by the addition of deionized water.

[2] = Oral delivery of insulin in rats with delivery agent: serum insulin by ELISA; conditions: procedure of Example 2 (0.25 mg/kg insulin, 100 mg/kg delivery agent)
Procedure: as §1, §2, §3, §4, §5, §6, §7
The insulin assay was performed as follows. Concentrations of insulin were quantified in rat serum using a sandwich-type ELISA kit (Diagnostic Systems Laboratories, Inc., Webster, Tex.). Samples were collected into capiject tubes containing a clot activator (red top, serum separator tubes). Samples were allowed to clot for ˜20 minutes at 4° C. […]

Sprague Dawley rats [3] = assay: Oral delivery of insulin in rats with delivery agent: change in blood glucose; conditions: delivery agent: insulin = 200 mg: 0.5 mg per Kg

Compound: O=C(O)CCCCCCC1CC1 [Compound 1, 7-cyclopropylheptanoic acid]
- Decrease of blood glucose (%) Average Value (Sprague Dawley rats [1]; time 0 min): 0%
- Decrease of blood glucose (%) Average Value (Sprague Dawley rats [1]; time 5 min): −1.5%
- Decrease of blood glucose (%) Average Value (Sprague Dawley rats [1]; time 10 min): −15.3%
- Decrease of blood glucose (%) Average Value (Sprague Dawley rats [1]; time 20 min): −32.9%
- Decrease of blood glucose (%) Average Value (Sprague Dawley rats [1]; time 40 min): −38.7%
- Decrease of blood glucose (%) Average Value (Sprague Dawley rats [1]; time 60 min): −36.6%
- Decrease of blood glucose (%) Average Value (Sprague Dawley rats [1]; time 90 min): −21.8%

Compound: O=C(O)CCCCCCCCC(=O)NC1CC1 [Compound 9, 10-(cyclopropylamino)-10-oxodecanoic acid]
- Max Mean Cmax [uU/mL] [2]: 142.7 ± 62.7 uU/mL

Compound: COC(=O)CCCCCCC(=O)NC1CC1 [Compound 11]
- Max Mean Cmax [uU/mL] [2]: 84.93 ± 57.8 uU/mL

Compound: COC(=O)CCCCCCCCC(=O)NC1CC1 [Compound 12]
- Max Mean Cmax [uU/mL] [2]: 340.4 ± 191.3 uU/mL

Compound: O=C(O)CCCCCCC(=O)NCC1CC1 [Compound 13]
- % of Glucose Reduction from Control (Sprague Dawley rats [3]; time 0 min): −0.862%
- % of Glucose Reduction from Control (Sprague Dawley rats [3]; time 15 min): −10.523%
- % of Glucose Reduction from Control (Sprague Dawley rats [3]; time 30 min): −20.866%
- % of Glucose Reduction from Control (Sprague Dawley rats [3]; time 45 min): −28.011%
- % of Glucose Reduction from Control (Sprague Dawley rats [3]; time 60 min): −32.952%

Compound: COC(=O)CCCCCCC(=O)NCC1CC1 [Compound 14]
- Max Mean Cmax [uU/mL] [2]: 71.3 ± 35.2 uU/mL

Compound: O=C(O)CCCCCCCCC(=O)NCC1CC1 [Compound 15]
- Max Mean Cmax [uU/mL] [2]: 71.2 ± 33.7 uU/mL
